According to patent publication US7893299B2, “Interleukin-1 and tumor necrosis factor-αmodulators; syntheses of such modulators and methods of using such modulators” (Nereus Pharmaceuticals, Inc., priority 2005, dated 2011):

Assays:
[1] = system: NF-κB DNA binding activity; assay: NF-κB DNA binding activity, EMSA, PC-3; type: cell-based; conditions: TNF-α
[2] = system: NF-κB p65 subunit nuclear translocation; type: cell-based; conditions: LPS-stimulated RAW264.7; 5, 10 and 20 μM
Protocol: Cells were pretreated with NPI-1387 (compound 24 under scheme 4 above) at 5, 10 and 20 μM for 1 hr, and then stimulated with 50 ng/ml LPS for 30 min. Coverslips were transferred to clean plates, washed twice in Dulbecco's phosphate buffered saline (DPBS), fixed in 10% formaldehyde for 10 min, and permeabilized with 0.2% Triton X-100 for additional 10 min. Blocking medium (DPBS, 2% BSA, 0.1% Triton X-100) was added for 2 h, and removed by aspiration. Polyclonal goat anti-p65 antibody (Santa Cruz Biotechnology) was added at a 1:1000 dilution for 1 hr. The wells were washed 3 times with DPBS containing 0.1% Triton X-100, and […] of Alexa-488-conjugated anti-goat antibody (1:1000 dilution, Molecular Probes) were added for 30 min. Wells were washed again, and the coverslips were mounted face-down on microscope slides using Vectashield (Vector) mounting medium. Slides were observed under an Olympus fluorescent microscope, images acquired using a Magnafire digital camera, and processed using Adobe Photoshop.

[3] = system: bortezomib-resistant DHL-4 lymphoma cells; assay: viability of bortezomib-resistant DHL-4 lymphoma cells; type: cell-based; conditions: 48 hours; 0, 12, 25 and 50 uM
Protocol: (§1) Two cell-based assays were treated with NPI-1387 for 48 hours at concentrations of 0, 12, 25 and 50 uM. Both Bcl-2-overexpressing MM.1S cells and bortezomib-resistant DHL-4 lymphoma cells were used and the percentage of viable cells of each was recorded. […] (See FIG. 67).

[4] = system: CCD-27sk (human normal skin fibroblast); assay: 48 hr cytotoxicity, CCD-27sk; type: cell-based; conditions: 48 hr drug exposure
Protocol: Human colon adenocarcinoma HT-29 (ATCC# HTB-38), prostate adenocarcinoma PC-3 (ATCC# CRL-1435), breast adenocarcinoma MDA-MB231 (ATCC# HTB-26), Multiple Myeloma RPMI 8226 (ATCC# CCL-155) and U266 (ATCC # TIB-196) cell lines and human normal fibroblast CCD-27sk (ATCC# CRL-1475) were all purchased from ATCC (Manassas, Va.). The cells were maintained in their respective ATCC recommended culture media at 37° C., 5% CO2 and 95% humidified air.
The cytotoxicity assays were performed by seeding individual cell lines at appropriate density in the 96 well flat-bottomed plates and allowed to attach for 24 hours at 37° C., 5% CO2 and 95% humidified air (RPMI 8226 and U266 cells were plated in 96 well plates on the day of compound addition). Serially diluted NPI-1387 was added in triplicate to cells at concentrations ranging from 160 nM to 20 μM. Final concentration of 0.25% (v/v) DMSO was used as the vehicle control. Cell viability was assessed 48 hours later by measuring the fluorescence of the reduction product of Resazurin by a Fusion microplate fluorometer (PerkinElmer) with λex=535 nm and λem=590 nm filters. The IC50 values (the drug concentration at which 50% of the maximal observed cytotoxicity is established) were calculated in XLFit 3.0 or XLFit 4.0 (ID Business Solutions Ltd) using a sigmoidal dose response model.

Panc1 cells = assay: apoptosis by PI FACS analysis, Panc1; type: cell-based, human; conditions: combination treatment with Salinosporamide A, increased from 4%
Text: Novel diterpene inhibitors of NFκB derived from acanthoic acid (NPI-1342 (Formula IIB-a1) and NPI-1387; compound 24 under scheme 4 above) show measurable effects in human pancreatic cancer cell lines in vitro. Seven of the nine cell lines were moderately sensitive to apoptosis induced by death receptor ligand Tumor Necrosis Factor (TNF) related apoptosis-inducing ligand (TRAIL). […] Specific silencing of NFkB/p65 expression mimicked these effects. Furthermore, combination treatment of Salinosporamide A and either NPI-1342 or NPI-1387 led to induction of apoptosis as measured by PI FACS analysis. Specifically, levels of DNA fragmentation increased from 4% to 50% in HS766T cells and from 4% to 52% in Panc1 cells. The inhibitory effects of NPI-1342, NPI-1387 on NFκB were evaluated by Electromobility Shift Assays and confirmed by confocal microscopy.

[5] = system: Bcl-2-overexpressing MM.1S cells; assay: viability of Bcl-2-overexpressing MM.1S cells; type: cell-based; conditions: 48 hours; 0, 12, 25 and 50 uM
Protocol: as §1

[6] = system: IκBα and p38 MAP kinase phosphorylation; assay: LPS- or TNF-α-induced phosphorylation of IκBα and p38 MAP kinase in RPMI 8226 cells; type: cell-based; conditions: 13 μM
Protocol: One ml/well of 2×10^6/ml RPMI 8226 cells (#CCL-155C, American Type Culture Collection) were seeded in 6-well plate in LGM-3 medium and cultured for overnight at 37° C., 5% CO2 and 95% humidified air. Formula (IIB-A1) was added to RPMI 8226 cells at the final concentration of 13 μM for 1 hr. DMSO was used as a control. Cells were then either stimulated by LPS (50 ng/ml) or by TNF-α (10 ng/ml) for various length of time. At the end of each period of stimulation, cells were harvested by centrifugation and cell pellets were washed once in ice-cold 1× Dulbecco's Phosphate buffered Saline (DPBS). To prepare samples for SDS-PAGE, cells were lysed in RIPA buffer (50 mM Tris-HCl, pH7.4, 0.9% NaCl, 1% Triton X-100, 0.25% Na-deoxycholate, 1 mM EDTA, 2 mM Na3VO4 and 1× protease inhibitors cocktail) for 15 min on ice. Cell lysates were cleared by centrifugation at 14,000 rpm, 4° C. for 10 min. Protein concentrations of cell lysates were determined by BCA protein assay kit prior to SDS-PAGE. Equal amount of proteins from various cell lysates were resolved on 10% NuPage MES precast gels and transferred to nitrocellulose membranes according to the manufacturer's instructions. […]

SMILES	NF-κB DNA binding activity [1]	nuclear translocation of NF-κB (p65) / activated IRAK1 [2]	percentage of viable cells [3]	IC50 [4]	levels of DNA fragmentation (Panc1 cells)	percentage of viable cells [5]	phosphorylation levels of IκBα and p38 MAP kinase induced by LPS and TNF-α in RPMI 8226 cells [6]	phosphorylation levels of IκBα and p38 MAP kinase induced by LPS and TNF-α in RPMI 8226 cells ([6]; listed as formula (IIB-A1))
C=CC(=O)C1(C)CCCC2(C)C3=CCC(C)(C=C)C[C@@H]3CC[C@H]12 (stereo in doubt) [NPI-1387, 1-[(1S,4aS,7R)-1,4a,7-Trimethyl-7-vinyl-1,2,3,4,4a,6,7,8,8a,9,10,10a-dodecahydro-1-phenanthrenyl]-2-propen-1-one]	inhibits the DNA binding activity of NF-κB in a dose-dependent manner	inhibits the NF-κB p65 subunit nuclear translocation in a dose-dependent manner	marked decrease in the percentage of viable cells	≥ 20 µM	52%	marked decrease in the percentage of viable cells	–	–
C=C[C@@]1(C)CCC=C2[C@H]1CC[C@@H]1[C@](C)(C(=O)NC3CCCCC3)CCC[C@@]21C [Formula (IIB-A1), N-Cyclohexylamide Derivative of TTL]	–	–	–	–	–	–	specifically inhibits LPS-induced phosphorylation of IκBα and p38 MAP kinase	specifically decreases LPS-induced phosphorylation of IκBα and p38 MAP kinase
